Like-named read-outs stand apart in the source and are kept apart here.
What was measured:
Type in all cases: biochemical
[1] = target: T1, JAK3 (catalytic domain, His-tag) (Homo sapiens, UniProt P52333); test: JAK kinase assay (HTRF, phosphorylation of TK substrate-biotin), JAK3; details: ATP at Km (2 μM)
T1 construct: All four purified enzymes contain only the catalytic domain; His (N); purchased Carna Biosciences, Inc; host or cells: baculovirus expression system
Method in brief: (§1)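 EC50 values come from HTRF signal of phospho-peptide detected by STK Ab Cryptate and Streptavidin-XL665 after overnight incubation. Reactions ran 20-30 min at RT in Hepes pH 7.0, 0.01% BSA, 1 mM DTT, with ATP at Km: 7, 4, 2 and 13 μM for JAK1, JAK2, JAK3, TYK2.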

[2] = target: T2, JAK2 (catalytic domain, His-tag) (Homo sapiens, UniProt O60674); test: JAK kinase assay (HTRF, phosphorylation of TK substrate-biotin), JAK2; details: ATP at Km (4 μM)
T2 construct: All four purified enzymes contain only the catalytic domain; His (N); purchased Carna Biosciences, Inc; host or cells: baculovirus expression system
T2 sequence (O60674 849-1124 limits assumed): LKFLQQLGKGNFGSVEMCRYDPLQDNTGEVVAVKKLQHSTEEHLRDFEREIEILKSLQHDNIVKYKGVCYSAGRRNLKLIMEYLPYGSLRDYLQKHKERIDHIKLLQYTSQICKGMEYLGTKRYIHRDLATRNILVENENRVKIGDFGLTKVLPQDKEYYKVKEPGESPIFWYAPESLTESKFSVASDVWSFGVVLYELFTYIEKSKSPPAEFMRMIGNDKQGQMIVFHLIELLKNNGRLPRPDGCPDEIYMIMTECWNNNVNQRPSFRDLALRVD
Method in brief: as §1

[3] = target: T3, TYK2 (aa 871-1187, catalytic domain, GST-tag) (Homo sapiens, UniProt P29597); test: JAK kinase assay (HTRF, phosphorylation of TK substrate-biotin), TYK2; details: ATP at Km (13 μM)
T3 construct: JAK1 (aa 850-1154) and TYK2 (aa 871-1187) are expressed with an N-terminally fused GST-tag; GST (N); purchased Carna Biosciences, Inc; host or cells: baculovirus expression system
T3 sequence (P29597 871-1187): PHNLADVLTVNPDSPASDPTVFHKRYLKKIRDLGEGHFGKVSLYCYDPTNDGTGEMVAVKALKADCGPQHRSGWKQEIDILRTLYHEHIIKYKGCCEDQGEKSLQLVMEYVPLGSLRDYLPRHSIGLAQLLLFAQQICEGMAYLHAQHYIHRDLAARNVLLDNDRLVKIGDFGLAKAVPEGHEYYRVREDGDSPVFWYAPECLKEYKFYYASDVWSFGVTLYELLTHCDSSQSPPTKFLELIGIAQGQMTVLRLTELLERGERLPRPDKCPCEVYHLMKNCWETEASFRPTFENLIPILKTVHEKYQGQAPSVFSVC
Method in brief: as §1

[4] = target: T4, JAK1 (aa 850-1154, catalytic domain, GST-tag) (Homo sapiens, UniProt P23458); test: JAK kinase assay (HTRF, phosphorylation of TK substrate-biotin), JAK1; details: ATP at Km (7 μM)
T4 construct: JAK1 (aa 850-1154) and TYK2 (aa 871-1187) are expressed with an N-terminally fused GST-tag; GST (N); purchased Carna Biosciences, Inc; host or cells: baculovirus expression system
T4 sequence (P23458 850-1154): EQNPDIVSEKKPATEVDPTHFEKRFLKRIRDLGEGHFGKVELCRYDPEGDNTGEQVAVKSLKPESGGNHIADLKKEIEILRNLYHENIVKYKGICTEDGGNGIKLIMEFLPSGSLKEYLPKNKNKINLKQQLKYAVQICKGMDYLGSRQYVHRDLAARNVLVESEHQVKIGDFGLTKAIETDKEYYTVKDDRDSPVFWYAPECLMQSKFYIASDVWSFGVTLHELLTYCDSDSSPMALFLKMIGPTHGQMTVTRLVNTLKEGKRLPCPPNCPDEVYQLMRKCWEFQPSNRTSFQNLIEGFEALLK
Method in brief: as §1

[5] = read-out: JAK3 kinase inhibitory activity (EC50 indicator)
[6] = read-out: JAK2 kinase inhibitory activity (EC50 indicator)
[7] = read-out: TYK2 kinase inhibitory activity (EC50 indicator)
[8] = read-out: JAK1 kinase inhibitory activity (EC50 indicator)
[9] = HTRF assay, read-out: JAK3 kinase inhibitory activity (EC50 indicator)
[10] = HTRF assay, read-out: JAK2 kinase inhibitory activity (EC50 indicator)
[11] = HTRF assay, read-out: TYK2 kinase inhibitory activity (EC50 indicator)
[12] = HTRF assay, read-out: JAK1 kinase inhibitory activity (EC50 indicator)

T1 sequence (P52333 822-1111 limits assumed): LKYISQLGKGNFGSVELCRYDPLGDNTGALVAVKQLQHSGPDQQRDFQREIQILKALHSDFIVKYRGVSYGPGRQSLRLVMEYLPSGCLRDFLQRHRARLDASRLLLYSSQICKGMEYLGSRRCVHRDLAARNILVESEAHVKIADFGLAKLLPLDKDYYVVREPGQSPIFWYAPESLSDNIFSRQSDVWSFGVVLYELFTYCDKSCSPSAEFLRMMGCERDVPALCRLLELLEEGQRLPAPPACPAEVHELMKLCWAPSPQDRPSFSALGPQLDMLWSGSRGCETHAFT

Row | EC50 [1, 5] | EC50 [2, 6] | EC50 [3, 7] | EC50 [4, 8] | EC50 [1, 9] | EC50 [2, 10] | EC50 [3, 11] | EC50 [4, 12] | SMILES | other results
1 | > 500 nM | < 100 nM | > 500 nM | 100 to 500 nM |  |  |  |  | N#Cc1ccc(CC(=O)N2CCN(c3nc(NC(=O)c4ccno4)nc4[nH]ccc34)CC23CC3)cc1 [Example 99, Isoxazole-5-carboxylic acid (4-{4-[2-(4-cyano-phenyl)-acetyl]-4,7-diaza-spiro[2.5]oct-7-yl}-7H-pyrrolo[2,3-d]pyrimidin-2-yl)-amide] | 
2 | < 100 nM | < 100 nM | > 500 nM | < 100 nM |  |  |  |  | COc1cc(C(=O)N2[C@@H]3CC[C@H]2CN(c2ncnc4[nH]ccc24)C3)cs1 [Example 108, (5-Methoxy-thiophen-3-yl)-[3-(7H-pyrrolo[2,3-d]pyrimidin-4-yl)-3,8-diaza-bicyclo[3.2.1]oct-8-yl]-methanone] | 
3 | 100 to 500 nM | < 100 nM | > 500 nM | 100 to 500 nM |  |  |  |  | CC1CN(C(=O)Cc2cccc(C#N)c2)C2(CC2)CN1c1ncnc2[nH]ccc12 (stereo not shown) [Example 146, 3-{2-[6-Methyl-7-(7H-pyrrolo[2,3-d]pyrimidin-4-yl)-4,7-diaza-spiro[2.5]oct-4-yl]-2-oxo-ethyl}-benzonitrile] | 
4 | 100 to 500 nM | < 100 nM | > 500 nM | < 100 nM |  |  |  |  | O=C(c1ccc2[nH]cnc2c1)N1CCN(c2ncnc3[nH]ccc23)CC12CC2 [Example 162, (1H-Benzoimidazol-5-yl)-[7-(7H-pyrrolo[2,3-d]pyrimidin-4-yl)-4,7-diaza-spiro[2.5]oct-4-yl]-methanone] | 
5 | < 100 nM | < 100 nM | 100 to 500 nM | < 100 nM |  |  |  |  | NS(=O)(=O)CCC(=O)N1CCN(c2ncnc3[nH]ccc23)CC12CC2 [Example 17, 3-Oxo-3-[7-(7H-pyrrolo[2,3-d]pyrimidin-4-yl)-4,7-diazaspiro[2.5]oct-4-yl]propane-1-sulfonic acid amide] | 
6 | > 500 nM | 100 to 500 nM | > 500 nM | 100 to 500 nM |  |  |  |  | CC(C)S(=O)(=O)c1ccc(C(=O)N2C3CCC2CN(c2ncnc4[nH]ccc24)C3)cc1 [Example 202, [4-(Propane-2-sulfonyl)-phenyl]-[3-(7H-pyrrolo[2,3-d]pyrimidin-4-yl)-3,8-diaza-bicyclo[3.2.1]oct-8-yl]-methanone] | 
7 |  |  |  |  | < 100 nM | < 100 nM | < 100 nM | < 100 nM | NS(=O)(=O)c1ccc(SCC(=O)N2CCN(c3ncnc4[nH]ccc34)CC23CC3)cc1 [Example 404, 4-{2-Oxo-2-[7-(7H-pyrrolo[2,3-d]pyrimidin-4-yl)-4,7-diaza-spiro[2.5]oct-4-yl]-ethylsulfanyl}-benzenesulfonamide] | 
8 |  |  |  |  | < 100 nM | < 100 nM | < 100 nM | < 100 nM | NS(=O)(=O)c1ccc(C(=O)N2CCN(c3ncnc4[nH]ccc34)CC23CC3)s1 [Example 405, 5-[7-(7H-Pyrrolo[2,3-d]pyrimidin-4-yl)-4,7-diaza-spiro[2.5]octane-4-carbonyl]-thiophene-2-sulfonic acid amide] | 
9 |  |  |  |  | 100 to 500 nM | < 100 nM | > 500 nM | 100 to 500 nM | O=C([C@H]1CCCc2ccccc21)N1CCN(c2ncnc3[nH]ccc23)CC12CC2 [Example 416, [7-(7H-Pyrrolo[2,3-d]pyrimidin-4-yl)-4,7-diaza-spiro[2.5]oct-4-yl]-(1,2,3,4-tetrahydro-naphthalen-1-yl)-methanone] | 
10 |  |  |  |  | > 500 nM | 100 to 500 nM | > 500 nM | 100 to 500 nM | O=C([C@@H]1CCCc2ccccc21)N1CCN(c2ncnc3[nH]ccc23)CC12CC2 [Example 415, [7-(7H-Pyrrolo[2,3-d]pyrimidin-4-yl)-4,7-diaza-spiro[2.5]oct-4-yl]-(1,2,3,4-tetrahydro-naphthalen-1-yl)-methanone] | 
11 | < 100 nM | < 100 nM | 100 to 500 nM | < 100 nM |  |  |  |  | O=C(C(=O)N1CCN(c2ncnc3[nH]ccc23)CC12CC2)c1cccs1 [Example 205, 1-[7-(7H-Pyrrolo[2,3-d]pyrimidin-4-yl)-4,7-diaza-spiro[2.5]oct-4-yl]-2-thiophen-2-yl-ethane-1,2-d lone] | 
12 |  |  |  |  |  |  |  |  | O=C(OC1CCCC1)N1CCN(c2ncnc3[nH]ccc23)CC12CC2 [Example 450, 7-(7H-Pyrrolo[2,3-d]pyrimidin-4-yl)-4,7-diaza-spiro[2.5]octane-4-carboxylic acid cyclopentyl ester] | EC50 ([1]; HTRF assay, read-out: JAK3 kinase inhibitory activity (EC50)): < 100 nM; EC50 ([2]; HTRF assay, read-out: JAK2 kinase inhibitory activity (EC50)): < 100 nM; EC50 ([3]; HTRF assay, read-out: TYK2 kinase inhibitory activity (EC50)): < 100 nM; EC50 ([4]; HTRF assay, read-out: JAK1 kinase inhibitory activity (EC50)): < 100 nM
13 | > 500 nM | 100 to 500 nM | > 500 nM | > 500 nM |  |  |  |  | O=C(Cc1cccnc1)N1[C@@H]2CC[C@@H]1CN(c1ncnc3[nH]ccc13)C2 [Example 172, 2-Pyridin-3-yl-1-[3-(7H-pyrrolo[2,3-d]pyrimidin-4-yl)-3,8-diaza-bicyclo[3.2.1]oct-8-yl]-ethanone] | 
14 |  |  |  |  | 100 to 500 nM | 100 to 500 nM | > 500 nM | 100 to 500 nM | O=C(c1nsc2cc(Br)ccc12)N1[C@@H]2CC[C@@H]1CN(c1ncnc3[nH]ccc13)C2 [Example 360, (6-Bromo-benzo[d]isothiazol-3-yl)-[3-(7H-pyrrolo[2,3-d]pyrimidin-4-yl)-3,8-diaza-bicyclo[3.2.1]oct-8-yl]-methanone] | 
15 |  |  |  |  | 100 to 500 nM | < 100 nM | > 500 nM | < 100 nM | O=C(c1ccccn1)N1[C@@H]2CC[C@@H]1CN(c1ncnc3[nH]ccc13)C2 [Example 241, Pyridin-2-yl-[3-(7H-pyrrolo[2,3-d]pyrimidin-4-yl)-3,8-diaza-bicyclo[3.2.1]oct-8-yl]-methanone] | 
16 |  |  |  |  | 100 to 500 nM | 100 to 500 nM | > 500 nM | 100 to 500 nM | N#Cc1ccccc1CC(=O)N1[C@@H]2CC[C@@H]1CN(c1ncnc3[nH]ccc13)C2 [Example 250, 2-{2-Oxo-2-[3-(7H-pyrrolo[2,3-d]pyrimidin-4-yl)-3,8-diaza-bicyclo[3.2.1]oct-8-yl]-ethyl}-benzonitrile] | 
17 |  |  |  |  | > 500 nM | > 500 nM | > 500 nM | > 500 nM | COc1cnc2[nH]ccc2c1N1CCN(C(=O)c2cc3ccccc3s2)C2(CC2)C1 [Example 284, Benzo[b]thiophen-2-yl-[7-(5-methoxy-1H-pyrrolo[2,3-b]pyridin-4-yl)-4,7-diaza-spiro[2.5]oct-4-yl]-methanone] | 
18 |  |  |  |  | 100 to 500 nM | < 100 nM | 100 to 500 nM | < 100 nM | N#Cc1ccc(C(=O)N2CCN(c3ncnc4[nH]ccc34)CC23CC3)cc1F [Example 219, 2-Fluoro-4-[7-(7H-pyrrolo[2,3-d]pyrimidin-4-yl)-4,7-diaza-spiro[2.5]octane-4-carbonyl]-benzonitrile] | 
19 | 100 to 500 nM | < 100 nM | 100 to 500 nM | 100 to 500 nM |  |  |  |  | N#CCN1CCCC(C(=O)N2CCN(c3ncnc4[nH]ccc34)CC23CC3)C1 (stereo not shown) [Example 94, {3-[7-(7H-Pyrrolo[2,3-d]pyrimidin-4-yl)-4,7-diaza-spiro[2.5]octane-4-carbonyl]-piperidin-1-yl}-acetonitrile] | 
20 | 100 to 500 nM | 100 to 500 nM | > 500 nM | 100 to 500 nM |  |  |  |  | N#CCC(=O)N1[C@@H]2CC[C@H]1CN(c1ncnc3[nH]ccc13)C2 [Example 53, 3-Oxo-3-[3-(7H-pyrrolo[2,3-d]pyrimidin-4-yl)-3,8-diazabicyclo[3.2.1]oct-8-yl]propionitrile] | 
21 |  |  |  |  | > 500 nM | 100 to 500 nM | > 500 nM | 100 to 500 nM | O=C(c1cccc(OC(F)(F)F)c1)N1CCN(c2ccnc3[nH]ccc23)CC12CC2 [Example 229, [7-(1H-Pyrrolo[2,3-b]pyridin-4-yl)-4,7-diaza-spiro[2.5]oct-4-yl]-(3-trifluoromethoxy-phenyl)-methanone] | 
22 |  |  |  |  | > 500 nM | 100 to 500 nM | > 500 nM | < 100 nM | O=C(c1ccc(OC(F)(F)F)cc1)N1CCN(c2ccnc3[nH]ccc23)CC12CC2 [Example 238, [7-(1H-Pyrrolo[2,3-b]pyridin-4-yl)-4,7-diaza-spiro[2.5]oct-4-yl]-(4-trifluoromethoxy-phenyl)-methanone] | 

— patent US9346809B2 (LEO PHARMA A/S, priority 2009, dated 2016)
